In the first test the target is STING (Homo sapiens, UniProt Q86WV6). Description: STING antagonist activity, cell-based ISG54 promoter-reporter luciferase measurement of IRF activity (THP-1 dual / RAW-ISG cells). Conditions: Antagonist Activity of Exemplary Compounds; cell line and agonist not given. The procedure: THP-1 dual cells (InvivoGen) were cultured under 5% CO2 at 37° C. in RPMI containing 10% fetal bovine serum (FBS), 100 IU mL-1 penicillin and 100 μg mL-1 streptomycin. RAW-ISG cells (InvivoGen) were cultured under 5% CO2 at 37° C. in DMEM containing 10% fetal bovine serum (FBS), 100 IU mL-1 penicillin and 100 μg mL-1 streptomycin. THP-1 dual cells were seeded into the 96 well assay plate on the day of assay whereas RAW cells were seeded into the 96 well assay plate 18 hours before the assay.
Chain of STING (Q86WV6 whole entry): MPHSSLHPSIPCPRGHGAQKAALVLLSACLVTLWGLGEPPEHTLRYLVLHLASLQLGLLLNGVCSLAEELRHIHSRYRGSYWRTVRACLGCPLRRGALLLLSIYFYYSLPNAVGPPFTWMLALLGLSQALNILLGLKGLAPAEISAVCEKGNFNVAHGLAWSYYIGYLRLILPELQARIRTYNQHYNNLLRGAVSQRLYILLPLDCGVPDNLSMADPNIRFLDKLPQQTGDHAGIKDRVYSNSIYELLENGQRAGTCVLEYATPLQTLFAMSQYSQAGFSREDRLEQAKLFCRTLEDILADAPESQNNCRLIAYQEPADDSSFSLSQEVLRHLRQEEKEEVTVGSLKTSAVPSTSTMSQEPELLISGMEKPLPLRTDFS
50,000 cells seeded in a 96-well flat bottom white assay plate were treated with different concentrations (10 uM to 0.01 uM) of compounds for 1 h followed by STING induction with either 30 nM SB 11285 or 10 ug/mL 2′-3′ cGAMP. The cells were then incubated for 20 hours @ 37° C. in CO2 incubator before measuring IRF activation by using Quanti-Luc (InvivoGen). The % inhibition was calculated as 100−{[(luminescence of COI treated well/luminescence of non-COI treated well)/100]×100}. IC50 was calculated by plotting in Xlfit.
50,000 cells seeded in a 96-well flat bottom white assay plate were treated with different concentrations (10 uM to 0.01 uM) of compounds for 1 h followed by STING induction with either 1 μM SB 11285 or 10 ug/mL 2′-3′ cGAMP. The cells were then incubated for 20 hours @ 37° C. in CO2 incubator before measuring IRF activation by using Quanti-Luc (InvivoGen). The % inhibition was calculated as 100−{[(luminescence of COI treated well/luminescence of non-COI treated well)/100]×100}. IC50 was calculated by plotting in Xlfit.
THP1-Dual-WT cells (InvivoGen) were plated into 96-well flat bottom plate at 5×10^4 cells/140 μL/well in triplicate. Cells were then treated with diluted antagonist compounds at 10 μL/well for 1 h, followed by treatment with compounds or 2′3′-cGAMP/lipo mixture for 18 h. The levels of IRF activity were determined using Quanti-luc (InvivoGen) and calculated against IRF activity in DMSO-treated cells. IC50 and CC50 values were calculated using Xlfit.
The term IC50 denotes the concentration that gives 50% inhibition. For the molecule `CC(=O)OCCCCCCCCn1c(C)nc2nc(Cl)nc(Cl)c21` [Compound 151, 8-(2,6-dichloro-8-methyl-7H-purin-7-yl)octyl acetate], the IC50 fell in the range of 1000 to 5000 nM.
Same read-out and setting: under `N#CCCOP(O)(=S)OCCCCCCCCCCCCCCCCn1cnc2nc(Cl)nc(Cl)c21` (stereo not shown) [Compound 90, O-(2-cyanoethyl)O-(16-(2,6-dichloro-7H-purin-7-yl)hexadecyl) O-hydrogen phosphorothioate] stands 5000 to 10000 nM.

Still in this test, the particulars now being: Antagonist Activity of Exemplary Compounds; cell line and agonist not given; read-out: IC50.
`COC(=O)CCCCn1cnc2nc(Cl)nc(Cl)c21` [Compound 32, methyl 5-(2,6-dichloro-7H-purin-7-yl)pentanoate]: the IC50 was 1000 to 5000 nM.
Same read-out and setting: under `Cc1nc2nc(Cl)nc(Cl)c2n1CCCCCCCCCCCCCCCCN` [Compound 163, 16-(2,6-dichloro-8-methyl-7H-purin-7-yl)hexadecan-1-amine] stands 1 to 1000 nM.
On the same count and under the same terms, the figure for `COC(=O)CCCCCCCCCCCCCCCn1cnc2ncnc(Cl)c21` [Compound 1] is 1000 to 5000 nM.
The same measure, in the same setting: under `COC(=O)CCCCCCCCCCCCCCCn1cnc2ncnc(SC)c21` [Compound 27, methyl 16-(6-(methylthio)-7H-purin-7-yl)hexadecanoate] stands 5000 to 10000 nM; under `CNC(=O)CCCCCCCCCCCCCCCn1c(C)nc2nc(Cl)nc(Cl)c21` [Compound 94, 16-(2,6-dichloro-8-methyl-7H-purin-7yl)-N-methylhexadecanamide], 1 to 1000 nM; under `CCOC(=O)CCCCCCCCCCCCCCCn1c(C)nc2nc(Cl)nc(Cl)c21` [Compound 78, ethyl 16-(2,6-dichloro-8-methyl-7H-purin-7-yl)hexadecanoate], 1 to 1000 nM.
With `COC(=O)CCCCCn1cnc2nc(Cl)nc(Cl)c21` [Compound 31, methyl 6-(2,6-dichloro-7H-purin-7-yl) hexanoate], the IC50 is 1000 to 5000 nM.
On the same count and under the same terms, the figure for `Cc1nc2nc(Cl)nc(Cl)c2n1CCCCn1c(C)nc2nc(Cl)nc(Cl)c21` [Compound 64, 1,4-bis(2,6-dichloro-8-methyl-7H-purin-7-yl)butane] is more than 20000 nM; for `CCCCCCCCCCCCCCCCn1c(CO)nc2nc(Cl)nc(S(=O)(=O)C(C)C)c21` [Compound 122, (2-chloro-7-hexadecyl-6-(isopropylsulfonyl)-7H-purin-8-yl)methanol] it is 1 to 1000 nM.
Same read-out and setting: the figure for `Cc1nc2nc(Cl)nc(S(=O)(=O)C(C)C)c2n1CCCCCCCCCCCCCCCc1noc(=O)n1C` [Compound 167, 3-(15-(2-chloro-6-(isopropylsulfonyl)-8-methyl-7H-purin-7-yl)pentadecyl)-4-methyl-1,2,4-oxadiazol-5(4H)-one] is 1 to 1000 nM.
On the same count and under the same terms, under `COC(=O)CCCCCCCCCCCCCCCn1cnc2nccc(Cl)c21` [Compound 41, methyl 16-(7-chloro-1H-imidazo[4,5-b]pyridin-1-yl) hexadecanoate] stands more than 20000 nM.
Take `COC(=O)CCCCCCCCCCCCCCCn1cnc2nc(F)nc(Cl)c21` [Compound 38, methyl 16-(6-chloro-2-fluoro-7H-purin-7-yl)hexadecanoate]: the IC50 was 1000 to 5000 nM.
The same measure, in the same setting: under `COC(=O)[C@@H](NC(=O)CCCCCCCCCCCCCCCn1c(C)nc2nc(Cl)nc(S(=O)(=O)C(C)C)c21)C(C)C` [Compound 148, methyl (16-(2-chloro-6-(isopropylsulfonyl)-8-methyl-7H-purin-7-yl)hexadecanoyl)-L-valinate] stands 1 to 1000 nM.
On to `COC(=O)CCCCCCCCCCCCCCCn1cnc2ncncc21` [Compound 3], for which the IC50 was more than 20000 nM.
The same measure, in the same setting: under `CCCCCCCCCCCCCCC(C(=O)O)n1cnc2c(Cl)nc(Cl)nc21` (stereo not shown) [Compound 16] stands 10000 to 20000 nM; under `COC(=O)CCCC(=O)N1CNc2nc(Cl)nc(Cl)c21` [Compound 80, methyl 5-(2,6-dichloro-8,9-dihydro-7H-purin-7-yl)-5-oxopentanoate], more than 20000 nM.
With `Cc1nc2nc(Cl)nc(Cl)c2n1CCCCCCCCCCCCCCCCN1CCOCC1` [Compound 105, 4-(16-(2,6-dichloro-8-methyl-7H-purin-7-yl)hexadecyl)morpholine], the IC50 fell in the range of 1 to 1000 nM.
Same read-out and setting: under `Cc1nc2nc(Cl)nc(Cl)c2n1CCCCCCCCCCCCCCCCP(=O)(O)O` [Compound 110, (16-(2,6-dichloro-8-methyl-7H-purin-7-yl)hexadecyl)phosphonic acid] stands more than 20000 nM.
Still for that read-out and setting: the figure for `Cc1nc2nc(Cl)nc(S(=O)(=O)C(C)C)c2n1CCCCCCCCCCCCCCCC(=O)N1CCOCC1` [Compound 145, 16-(2-chloro-6-(isopropylsulfonyl)-8-methyl-7H-purin-7-yl)-1-morpholinohexadecan-1-one] is 1 to 1000 nM; for `COC(=O)CCCCCCNCCCCCCCCn1c(C)nc2nc(Cl)nc(Cl)c21` [Compound 155, Methyl 7-((8-(2,6-dichloro-8-methyl-7H-purin-7-yl)octyl)amino)heptanoate] it is 1 to 1000 nM; for `Cc1nc2nc(Cl)nc([S+]([O-])C(C)C)c2n1CCCCCCCCCC[N+]1([O-])CCOCC1` (stereo not shown) [Compound 127, 4-(10-(2-chloro-6-(isopropylsulfinyl)-8-methyl-7H-purin-7-yl)decyl)morpholine 4-oxide] it is more than 20000 nM.
The same measure, in the same setting: under `Cc1nc2nc(Cl)nc(Cl)c2n1CCCCCCCCCCCCCCCC(=O)OC(CO)CO` [Compound 106, 1,3-dihydroxypropan-2-yl 16-(2,6-dichloro-8-methyl-7H-purin-7-yl)hexadecanoate] stands 1000 to 5000 nM.
In the case of `CCCCCCCCC(C(=O)O)n1cnc2c(Cl)nc(Cl)nc21` (stereo not shown) [Compound 19, 2-(2,6-dichloro-9H-purin-9-yl)decanoic acid], the IC50 fell in the range of 5000 to 10000 nM.
Turning to `Cc1nc2nc(Cl)nc(S(=O)(=O)C(C)C)c2n1CCCCCCCCCC[N+]1([O-])CCOCC1` [Compound 115, 4-(10-(2-chloro-6-(isopropylsulfonyl)-8-methyl-7H-purin-7-yl)decyl)-4-(11-oxidanyl)-4l4-morpholine], the IC50 is more than 20000 nM.
Same read-out and setting: under `Cc1nc2nc(Cl)nc(S(=O)(=O)C(C)C)c2n1CCCCCCCCCCCCCCCC(=O)OCCO` [Compound 144, 2-hydroxyethyl 16-(2-chloro-6-(isopropylsulfonyl)-8-methyl-7H-purin-7-yl)hexadecanoate] stands 1 to 1000 nM; under `COC(=O)CCCCCCCCCCn1cnc2nc(Cl)nc(Cl)c21` [Compound 7], 1 to 1000 nM.
On the same count and under the same terms, the figure for `COC(=O)C(C)(C)n1cnc2nc(Cl)nc(Cl)c21` [Compound 56, methyl 2-(2,6-dichloro-7H-purin-7-yl)-2-methylpropanoate] is more than 20000 nM; for `Cc1nc2nc(Cl)nc([S+]([O-])C(C)C)c2n1CCCCCCCCCCN1CCOCC1` (stereo not shown) [Compound 136, 4-(10-(2-chloro-6-(isopropylsulfinyl)-8-methyl-7H-purin-7-yl)decyl)morpholine] it is 1 to 1000 nM.
Still for that read-out and setting: under `Cc1nc2nc(Cl)nc(S(=O)(=O)C(C)C)c2n1CCCCCCCCCCCCCCCC(=O)OC[C@@H]1COC(C)(C)O1` [Compound 134, (S)-(2,2-dimethyl-1,3-dioxolan-4-yl)methyl 16-(2-chloro-6-(isopropylsulfonyl)-8-methyl-7H-purin-7-yl)hexadecanoate] stands 1 to 1000 nM; under `OCCOCCOCCOCCn1cnc2c(Cl)nc(Cl)nc21` [Compound 51, 2-(2-(2-(2-(2,6-dichloro-9H-purin-9-yl)ethoxy)ethoxy)ethoxy)ethan-1-ol], more than 20000 nM; under `Cc1nc2nc(Cl)nc(S(=O)(=O)C(C)C)c2n1CCCCCCCCCCCCCCCC(=O)OCC(C)C` [Compound 159, Isobutyl 16-(2-chloro-6-(isopropylsulfonyl)-8-methyl-7H-purin-7-yl)hexadecanoate], 1000 to 5000 nM.
As to `Cc1nc2nc(Cl)nc(Cl)c2n1CCCCCCCCCCCCCCCC(=O)OC[C@H](O)CO` [Compound 104, (R)-2,3-dihydroxypropyl 16-(2,6-dichloro-8-methyl-7H-purin-7-yl)hexadecanoate], the IC50 lay within 1 to 1000 nM.
On to `COC(=O)CCCN1CCN(CCCCCCn2c(C)nc3nc(Cl)nc(Cl)c32)CC1` [Compound 153, Methyl 4-(4-(6-(2,6-dichloro-8-methyl-7H-purin-7-yl)hexyl)piperazin-1-yl)butanoate], for which the IC50 was in the range of 1000 to 5000 nM.
Take `Cc1nc2nc(Cl)nc(S(=O)(=O)C(C)C)c2n1CCCCCCCCCCCCCCCC(=O)OC[C@@H](O)CO` [Compound 135, (S)-2,3-dihydroxypropyl 16-(2-chloro-6-(isopropylsulfonyl)-8-methyl-7H-purin-7-yl)hexadecanoate]: the IC50 lay within 1 to 1000 nM.
The same measure, in the same setting: under `COC(=O)CCCCCCCCCCCCCCCn1c(CN2CCOCC2)nc2nc(Cl)nc(Cl)c21` [Compound 154, methyl 16-(2,6-dichloro-8-(morpholinomethyl)-7H-purin-7-yl)hexadecanoate] stands 1 to 1000 nM.

Values taken from patent publication US20220168309A1 (F-STAR THERAPEUTICS, INC., priority 2019, published 2022).
